Experimental data published in patent US10426388B2, “Prediction of tumor recurrence by measuring oxygen saturation” (THE GENERAL HOSPITAL CORPORATION, priority 2014, dated 2019).
“And” between values parts separate entries of the source, which are not always exact repeats. Identical values can stand only once. “Also recorded” adds a separate entry of the source.

Columns and labels:
[1] = tested on: tumor; assay: Tumor hypoxia/oxygenation after irinotecan detected by photoacoustic imaging; format: in vivo
[2] = tested on: subcutaneous U87 tumors; assay: Longitudinal volume monitoring of subcutaneous U87 tumors after BPD-PDT; format: in vivo, mice
Source text: Chen et al., Int J Radiat Oncol Biol Phys., 61(4):1216-26 (2005); Chen et al., Crit Rev Eukaryot Gene Expr., 16(4):279-305 (2006). It was postulated in previous work that at 1-hr the PS localizes to both cellular and vascular compartments of the tumor while at 3-hrs, most of the PS is extra vascular and primarily cellular therefore less likely to impact the tumor oxygenation status. Iinuma et al., Cancer Research, 59(24):6164-70 (1999). […] Amongst the mice that underwent PDT with 1-hr DLI, there was no regrowth for ˜two weeks and at that point 35% of the mice started to show recurrence and an increase in tumor volume (FIG. 6, dashed line), while 65% mice had no palpable tumor 30 days post therapy (FIG. 6, solid line). To test if PAI could monitor the changes in StO2 in the tumor due to PDT, The inventors designated the 1-hr DLI group with a sustained absence of palpable tumors up to 30 days post treatment (FIG. 6, triangles joined by solid line) as the “PDT responding group” and the mice in the 3-hr DLI group (FIG. 6, squares joined by solid line) were considered the “PDT non-responding group”.
(§1) Animal Model: All animal experiments were approved by the Subcommittee on Research Animal Care of Massachusetts General Hospital. Female athymic Swiss nude mice (Cox, Cambridge, Mass.), 8-10 weeks old, were anesthetized with isoflurane USP (Baxter, Deerfield, Ill.) and inoculated subcutaneously with 3×10^6 U87 cells in 300 μL, of Matrigel (BD Bioscience, San Jose, Calif.). Tumor volumes were measured using calipers by two researchers separately. Tumor volume was calculated using the formula; π/6×Length×Width×Height and photographs of the tumors were obtained.
(§2) PDT Treatment: Mice were injected intravenously with 0.5 mg/kg of BPD-MA, then PDT was performed as follows. Mice were placed under the laser light source and covered with black cloth except tumor area. 1 or 3-hrs post injection, mice were irradiated with 100 J/cm^2 using a 690 nm laser diode source (Model 7401; Intense, North Brunswick, N.J.) at a fluence rate of 100 mW/cm^2 as measured via a VEGA laser power energy meter (Ophir Laser Measurement Group, LLC).

[3] = tested on: subcutaneous U87 tumors; assay: Photoacoustic imaging of tumor StO2 and HbT before and after BPD-PDT; format: in vivo, mice
Method: StO2 and HbT content were measured in both the 1-hr DLI responding group and 3-hr DLI (nonresponders) group of mice (n=6 per group) at 4 time points (before PDT (Pre-PDT), immediately post-PDT, 6-hrs and 24-hrs post-PDT) to determine if PAI could predict treatment response. FIG. 7A and FIG. 7B show representative images of the change in StO2 and HbT content at various time points in a responding and non-responding tumor respectively. Ultrasound imaging identified region of interest (green ROI in FIGS. 7A and 7B is the tumor region). FIG. 7C and FIG. 7D represent the average of StO2 values and HbT values in the tumor ROI from ˜350 B-scans per mouse (6 mice in each group, ˜55-75 B-scans per 3D tumor volume). […] This phenomena is in agreement with the studies by Wang et al. and is attributed to cell death and a decrease in the metabolic consumption of oxygen in the tumor area. Wang et al., Cancer Research, 64(20):7553-61 (2004).
as §1, §2
Ultrasound and Photoacoustic Imaging: Image acquisition and quantitation was performed using the ultrasound and photoacoustic imaging system (Vevo LAZR, FUJIFILM VisualSonics, Inc.). Light generated from a tunable laser operating at either 750 nm or 850 nm was delivered through fiber optic bundles integrated into a linear array transducer (LZ-250, 21 MHz). The Oxy-Hemo feature of the Vevo LAZR software was used to acquire the oxygen-saturation images. Mice were imaged under isoflurane. Physiological status (ECG, respiration, and body temperature) of the mice was closely monitored during image acquisition sessions. 3D ultrasound and photoacoustic images were acquired at a step size of 0.152 mm. The Vevo LAZR workstation software was utilized to mark the tumor region of interest and obtain the StO2 and HbT values for every B-scan. The workstation allowed export of the raw data. The raw data is processed using customized MATLAB routines and integrated with 3D visualization software AMIRA to obtain the prediction maps.

[4] = tested on: subcutaneous U87 tumors; assay: Validation of tumor hypoxia with pimonidazole/CD31 immunofluorescence after BPD-PDT; format: in vivo, mice; conditions: 1-hr DLI (responding group) compared with 3-hr DLI (non-responding) group
Source text: The inventors next validated the hypoxic conditions observed in photoacoustic images with pimonidazole stain for hypoxia. Gerling et al., Theranostics, 4(6):604-13 (2014). Tumors were sectioned in a similar orientation as the imaging cross-section. CD31 stain was utilized to depict the tumor vasculature while pimonidazole stained the hypoxic regions. In the 1-hr DLI group (FIGS. 8A-4D), Immunofluorescence (IF) images show hypoxia adjacent to the vasculature depicted by the CD31 stain. The hypoxia is due to the vascular damage caused by PDT and disruption of the blood flow in these vessels. Zoomed images of the H&E stain of the adjacent cross section show vascular congestions. […] It is also to be noted that the fluorescence of the pimonidazole stain is stronger in the 1-hr DLI (responding group) tumor than in the 3-hr DLI (non-responding) group given the severe hypoxic conditions created by PDT.
Immunohistochemistry: An overview of the immunofluorescence staining protocol used in this study is published previously by the inventors. […] The slides were washed in PBS and secondary antibody (Donkey Anti-Goat IgG NL493 Affinity Purified PAb (R&D systems Inc) was applied for 2-hrs at room temperature. Finally the slides were washed and sealed with coverslip. A whole slide scanning fluorescence imaging system (Hamamatsu NanoZoomer 2.0-RS) at 40× magnification was used to image the slides.

[5] = Photobleaching of BPD in phantom tubes by photoacoustic imaging (fluorescence before/after PAI); format: physicochemical; conditions: fluorescence at 690 nm
Method: The FDA approved photosensitizer Benzoporphryin derivative (BPD-MA) (Aveline et al., Photochemistry and Photobiology, 59(3):328-35 (1994)) with absorption peaks at […] was used for all PDT experiments. To achieve better depth of light penetration, 690 nm light was used for PDT. PAI was performed at 750 nm and 850 nm wavelength illumination to deduce StO2 from the oxygenated and deoxygenated hemoglobin signal as described by Needles et al. Needles et al., IEEE Trans Ultrason Ferroelectr Freq Control. 60(5):888-97 (2013). At these wavelengths, the absorbance of BPD is minimal (FIG. 5A). PAI was performed using pulsed nanosecond laser (10 nsec pulse width) illumination. […] Fluorescence imaging on the tubes were performed using a Maestro imaging system (CRI Inc.) with an excitation at 405 nm and emission at 690 nm.
Fluorescence imaging: Fluorescence images of two phantom tube (500 um inner diameter) containing phosphate buffered saline (PBS) and liposomal BPD were acquired using a CRi Maestro system. […] Fluorescence images at 690 nm were acquired. A custom Matlab routine was used to quantify fluorescence signals in the tubes. […] Fluorescence image of the tubes were acquired and the tubes were again irradiated with laser of the Vevo LAZR system operating at 690 nm (10 ns pulse width at 10 Hz, 44.5 mJ/cm^2 fluence). […]

[6] = responding 1-hr DLI group, 6-hrs post-PDT
[7] = responding 1-hr DLI group, 24-hrs post-PDT

CCc1c2c(nc3ccc(OC(=O)N4CCC(N5CCCCC5)CC4)cc13)-c1cc3c(c(=O)n1C2)COC(=O)[C@]3(O)CC [irinotecan]
tumor oxygenation ([1]; after irinotecan treatment, photoacoustic imaging): increases tumor oxygenation
levels of hypoxia ([1]; from 1 to 24 hours after treatment): steadily increasingly decrease

benzoporphyrin derivative monoacid ring-A [BPD]
mice showing recurrence (local tumor recurrence) ([2]; 1-hr DLI PDT): ~35%
time without regrowth ([2]; 1-hr DLI PDT): two weeks
mice with no palpable tumor ([2]; 1-hr DLI PDT, 30 days post therapy): 65%
increase in tumor volume ([2]; 3-hr DLI group, three weeks following PDT, 0.5 mg/kg BPD, 100 J/cm^2): approximately six-fold
tumor volume difference versus no-treatment group ([2]; 3-hr DLI group, p>0.05, Students t-test): no significant difference
HbT value versus pre-PDT value ([3]; 1-hr DLI group, 6-hrs post-PDT): significantly higher
StO2 immediately post-PDT versus pre-PDT ([3]; 1-hr DLI group, p<0.001): increase in oxygenation
HbT signal at 6-hrs and 24-hrs post-PDT ([3]; 3-hr DLI group): no statistical difference
StO2 24-hrs post-PDT versus pre-PDT ([3]; 3-hr DLI group): No statistically significant difference
StO2 immediately post-PDT versus pre-PDT ([3]; 3-hr DLI group): no statistically significant difference
change in StO2 compared to pre-PDT StO2 value ([3]; 3-hr DLI group, 6-hrs post-PDT): ~18%
StO2 ([3]; non-responding 3-hr DLI group, 6-hrs post-PDT): 47.6%±13.4%
StO2 ([3]; non-responding 3-hr DLI group, 24-hrs post-PDT): 55.3%±11.6%
StO2 [3, 6]: 2.97±1.6% and 2.9%±1.6%
decrease in StO2 relative to Pre-PDT value [3, 6]: ~95% and ~94.3%
StO2 [3, 7]: 8.03%±4.13%
decrease in StO2 relative to pre-PDT value [3, 7]: ~85% and ~84.8%
fluorescence of the pimonidazole stain (hypoxia), 1-hr DLI tumor versus 3-hr DLI tumor [4]: stronger
BPD fluorescence after PAI (photobleaching) ([5]; PAI at 690 nm): significant decrease in the fluorescence; also recorded: reduced fluorescence
BPD fluorescence signal after PAI compared to pre-imaging value ([5]; PAI at 750 nm followed by 850 nm pulsed laser irradiation): no significant difference; also recorded: no significant change
